From patent publication US20110124588A1, “SYNERGISTIC ACTIVE INGREDIENT COMBINATIONS” (Bayer Cropscience AG, priority 2008, published 2011)
Where two headings read alike, the source gives them in different places.

Assays:
Myzus persicae = Myzus persicae test (spray treatment of infested cabbage leaves); assay type: in vivo, green peach aphid (Myzus persicae); settings: Myzus persicae
Experimental: (§1) If the actual kill rate exceeds the calculated value, the kill of the combination is superadditive, i.e. a synergistic effect is present. In this case, the actually observed kill rate must exceed the value calculated using the above formula for the expected kill rate (E).
(§2) solvents: 78 parts by weight of acetone • • 1.5 parts by weight of dimethylformamide emulsifier: 0.5 part by weight of alkylaryl polyglycol ether
After the desired period of time, the kill in % is determined 100% means that all aphids have been killed; 0% means that none of the aphids have been killed. The kill rates determined are entered into Colby's formula.

Phaedon cochleariae = Phaedon cochleariae larvae test (sprayed cabbage leaves); assay type: in vivo, mustard beetle (Phaedon cochleariae) larvae; settings: for pest or weed control at 20 g/ha / pest or weed control at 4 g/ha / pest or weed control at 0.8 g/ha / pest or weed control at 0.16 g/ha / pest or weed control at 100 g/ha: Phaedon cochleariae
Experimental: as §1
Solvents: 78 parts by weight of acetone • • 1.5 parts by weight of dimethylformamide Emulsifier: 0.5 part by weight of alkylaryl polyglycol ether
After the desired period of time, the kill in % is determined 100% means that all beetle larvae have been killed; 0% means that none of the beetle larvae have been killed. The kill rates determined are entered into Colby's formula.

Spodoptera frugiperda = Spodoptera frugiperda larvae test (sprayed cabbage leaves); assay type: in vivo, army worm (Spodoptera frugiperda) larvae
From the text: (§3) The expected activity of a given combination of two active compounds can be calculated as follows, according to S. R. Colby, Weeds 15 (1967), 20-22:
(§4) X is the kill rate, expressed as a percentage of the untreated control, when employing active compound A at an application rate of m g/ha or in a concentration of m ppm, Y is the kill rate, expressed as a percentage of the untreated control, when employing active compound B at an application rate of n g/ha or in a concentration of n ppm and E is the kill rate, expressed as a percentage of the untreated control, when employing active compounds A and B at application rates of m and n g/ha or in a concentration of m and n ppm, then
as §1, §2
(§5) To produce a suitable preparation of active compound, 1 part by weight of active compound is mixed with the stated amounts of solvents and emulsifier, and the concentrate is diluted with emulsifier-containing water to the desired concentration.
Cabbage leaves (Brassica oleracea) are treated by spraying with the active compound preparation of the desired concentration and are populated with larvae of the army worm (Spodoptera frugiperda) while the leaves are still moist.
After the desired period of time, the kill in % is determined 100% means that all caterpillars have been killed; 0% means that none of the caterpillars have been killed. The kill rates determined are entered into Colby's formula.

Tetranychus urticae = Tetranychus urticae test (OP-resistant/spray treatment); assay type: in vivo, greenhouse red spider mite (Tetranychus urticae); settings: Tetranychus urticae, 144 h; single active compound, 0.8 g/ha, after 6 d; read-out: Kill in % after 6 d
From the text: as §3, §4, §1, §2, §5
Discs of bean leaves (Phaseolus vulgaris) which are infested by all stages of the greenhouse red spider mite (Tetranychus urticae) are sprayed with an active compound preparation of the desired concentration.
After the desired period of time, the activity in % is determined 100% means that all spider mites have been killed; 0% means that none of the spider mites have been killed.

[1] = 24 h, read-out: Kill in % after 1 d
[2] = 144 h, single active compound, 6 d, read-out: Kill in % after 6 d
[3] = Spodoptera frugiperda, 144 h, read-out: Kill in % after 6 d
[4] = 144 h, read-out: Kill in % after 6 d
[5] = Spodoptera frugiperda, 48 h, read-out: Kill in % after 2 d
[6] = 48 h, single active compound, 2 d, read-out: Kill in % after 2 d
[7] = 144 h, single active compound, 0.8 g/ha, 6 d, read-out: Kill in % after 6 d
[8] = 144 h, single active compound, 100 g/ha, 6 d, read-out: Kill in % after 6 d
[9] = single active compound, 0.8 g/ha, 6 d

**Q.** What does the source list for N#C/N=C1\SCCN1Cc1ccc(Cl)nc1 [thiacloprid]?
**A.** pest or weed control at 0.16 g/ha (Myzus persicae; [1]): 0%; pest or weed control at 20 g/ha (Phaedon cochleariae; [2]): 50%; pest or weed control at 20 g/ha (Spodoptera frugiperda; [3]): 50%

**Q.** Which pest or weed control at 0.032 g/ha (Myzus persicae; [4]) does the source give for CNC(=O)c1cc(Cl)cc(C)c1NC(=O)c1cc(Br)nn1-c1ncccc1Cl [Rynaxapyr, Chlorantraniliprole] here?
**A.** Its pest or weed control at 0.032 g/ha is 0%.

**Q.** And the pest or weed control at 0.16 g/ha (Spodoptera frugiperda; [5])?
**A.** The pest or weed control at 0.16 g/ha was 33%.

**Q.** For Nc1nc(N)nc(NC2CC2)n1 [cyromazine], which pest or weed control at 0.16 g/ha (Myzus persicae; [4]) is on record?
**A.** The pest or weed control at 0.16 g/ha was 0%.

**Q.** And the pest or weed control at 0.8 g/ha (Myzus persicae; [4])?
**A.** Its pest or weed control at 0.8 g/ha is 0%.

**Q.** And the pest or weed control at 20 g/ha (Phaedon cochleariae; [2])?
**A.** Its pest or weed control at 20 g/ha is 0%.

**Q.** Which pest or weed control at 0.8 g/ha (Spodoptera frugiperda; [3]) does the source give for O=C(NC(=O)c1ccccc1Cl)Nc1ccc(OC(F)(F)F)cc1 [triflumuron] here?
**A.** The pest or weed control at 0.8 g/ha was 33%.

**Q.** For O=[N+]([O-])/N=C1\NCCN1Cc1ccc(Cl)nc1 [imidacloprid], which pest or weed control at 0.16 g/ha (Myzus persicae; [1]) is on record?
**A.** Its pest or weed control at 0.16 g/ha is 50%.

**Q.** What about the pest or weed control at 4 g/ha (Phaedon cochleariae; [6]) of the same compound?
**A.** The pest or weed control at 4 g/ha was 0%.

**Q.** What about the pest or weed control at 4 g/ha (Phaedon cochleariae; [2]) of the same compound?
**A.** The pest or weed control at 4 g/ha was 0%.

**Q.** And the pest or weed control at 20 g/ha (Phaedon cochleariae; [2])?
**A.** The pest or weed control at 20 g/ha was 50%.

**Q.** How did the pest or weed control at 4 g/ha (Phaedon cochleariae; [2]) turn out when O=[N+]([O-])/N=C1\NCCN1Cc1cnc(Cl)s1 [imidaclothiz] was run?
**A.** Its pest or weed control at 4 g/ha is 0%.

**Q.** For N#Cc1nn(-c2c(Cl)cc(C(F)(F)F)cc2Cl)c(N)c1[S+]([O-])C(F)(F)F (stereo not drawn) [fipronil], which pest or weed control at 0.8 g/ha (Myzus persicae; [4]) is on record?
**A.** Its pest or weed control at 0.8 g/ha is 0%.

**Q.** Which pest or weed control at 0.032 g/ha (Myzus persicae; 144 h, single active compound, 0.032 g/ha, 6 d, read-out: Kill in % after 6 d) does the source give for Cc1cc(C(F)(C(F)(F)F)C(F)(F)F)ccc1NC(=O)c1cccc(Cl)c1C(=O)N[C@@H](C)CS(C)(=O)=O [compound II-28-2] here?
**A.** The pest or weed control at 0.032 g/ha was 0%.

**Q.** What about the pest or weed control at 0.8 g/ha (Phaedon cochleariae; [7]) of the same compound?
**A.** Its pest or weed control at 0.8 g/ha is 0%.

**Q.** What about the pest or weed control at 0.16 g/ha (Spodoptera frugiperda; Spodoptera frugiperda, 144 h, single active compound, 0.16 g/ha, 6 d, read-out: Kill in % after 6 d) of the same compound?
**A.** Its pest or weed control at 0.16 g/ha is 50%.

**Q.** Which results are given for CC1(C)C(C=C(Cl)Cl)C1C(=O)OC(C#N)c1cccc(Oc2ccccc2)c1 (stereo not drawn) [alpha-cypermethrin]?
**A.** pest or weed control at 0.0064 g/ha (Myzus persicae; [4]): 0%; pest or weed control at 0.16 g/ha (Phaedon cochleariae; [2]): 0%; Kill in % after 2 d (Phaedon cochleariae; single active compound, 0.8 g/ha, 2 d): 0%

**Q.** What does the source list for O=C1C=C(N(Cc2ccc(Cl)nc2)CC(F)F)CO1 [compound II-29-29, 4-{[(6-chloropyrid-3-yl)methyl](2,2-difluoroethyl)amino}furan-2(5H)-one]?
**A.** pest or weed control at 0.8 g/ha (Myzus persicae; [4]): 50%; pest or weed control at 100 g/ha (Phaedon cochleariae; [8]): 67%

**Q.** What does the source list for CNC(=O)c1cc(C#N)cc(C)c1NC(=O)c1cc(Br)nn1-c1ncccc1Cl [cyazypyr, Cyantraniliprole]?
**A.** pest or weed control at 0.16 g/ha (Myzus persicae; [1]): 0%; pest or weed control at 0.16 g/ha (Phaedon cochleariae; [6]): 17%

**Q.** Which results are given for CN1COCN(Cc2cnc(Cl)s2)/C1=N/[N+](=O)[O-] [thiamethoxam]?
**A.** pest or weed control at 0.0064 g/ha (Myzus persicae; [4]): 0%; pest or weed control at 0.032 g/ha (Myzus persicae; [4]): 0%; pest or weed control at 0.8 g/ha (Phaedon cochleariae; [7]): 0%

**Q.** Cc1cc(C)c([S+]([O-])CC(F)(F)F)cc1-n1cnc(C(F)(F)F)n1 (stereo not drawn) [II-29-31, 1-{2,4-dimethyl-5-[(2,2,2-trifluoroethyl)sulphinyl]phenyl}-3-(trifluoromethyl)-1H-1,2,4-triazole] was tested. Which pest or weed control at 0.8 g/ha (Tetranychus urticae) did it give?
**A.** The pest or weed control at 0.8 g/ha was 60%.

**Q.** O=C(NC(=O)c1c(F)cccc1F)Nc1cc(Cl)c(OC(F)(F)C(F)C(F)(F)F)cc1Cl (stereo not drawn) [lufenuron] was tested. Which pest or weed control at 100 g/ha (Phaedon cochleariae; 48 h, single active compound, 100 g/ha, 2 d, read-out: Kill in % after 2 d) did it give?
**A.** The pest or weed control at 100 g/ha was 0%.

**Q.** And the pest or weed control at 100 g/ha (Spodoptera frugiperda; [5])?
**A.** The pest or weed control at 100 g/ha was 0%.

**Q.** Which “Kill in % after 6 d” value (Phaedon cochleariae; [9]) does the source give for milbemectin here?
**A.** Its value is 0%.

**Q.** And the “Kill in % after 6 d” value (Spodoptera frugiperda; [9])?
**A.** The value was 0%.

**Q.** How did the pest or weed control at 0.032 g/ha (Myzus persicae; [4]) turn out when C/C(=N\C#N)N(C)Cc1ccc(Cl)nc1 [acetamiprid] was run?
**A.** The pest or weed control at 0.032 g/ha was 0%.

**Q.** How did the pest or weed control at 100 g/ha (Phaedon cochleariae; [4]) turn out when COP(=O)(NC(C)=O)SC (stereo not drawn) [acephate] was run?
**A.** The pest or weed control at 100 g/ha was 0%.

**Q.** For N#CCNC(=O)c1cnccc1C(F)(F)F [flonicamid], which pest or weed control at 0.8 g/ha (Myzus persicae; [1]) is on record?
**A.** Its pest or weed control at 0.8 g/ha is 0%.

**Q.** What about the pest or weed control at 4 g/ha (Myzus persicae; [1]) of the same compound?
**A.** Its pest or weed control at 4 g/ha is 20%.

**Q.** What about the pest or weed control at 0.032 g/ha (Myzus persicae; [4]) of the same compound?
**A.** The pest or weed control at 0.032 g/ha was 0%.

**Q.** And the pest or weed control at 20 g/ha (Phaedon cochleariae; [6])?
**A.** Its pest or weed control at 20 g/ha is 0%.

**Q.** And the pest or weed control at 0.8 g/ha (Phaedon cochleariae; [7])?
**A.** Its pest or weed control at 0.8 g/ha is 0%.

**Q.** What about the pest or weed control at 100 g/ha (Phaedon cochleariae; [8]) of the same compound?
**A.** Its pest or weed control at 100 g/ha is 0%.

**Q.** FC(F)(F)c1ccc(OCCCOc2c(Cl)cc(OCC=C(Cl)Cl)cc2Cl)nc1 [pyridalyl] was tested. Which pest or weed control at 20 g/ha (Spodoptera frugiperda; [5]) did it give?
**A.** Its pest or weed control at 20 g/ha is 67%.
